Assay results reported in PMC6759476, “Prior Activation of 5-HT7 Receptors Modulates the Conditioned Place Preference With Methylphenidate” (Frontiers in Behavioral Neuroscience, 2019).

How the values were obtained:
5-HT6 = target: 5-HT6; set-up: method as in Lacivita et al., 2016; conditions: ref Lacivita et al., 2016; cited from earlier work
[1] = set-up: method as in Lacivita et al., 2016; Modica et al., 2018; conditions: in vivo bio-distribution; ref Lacivita et al., 2016; Modica et al., 2018; cited from earlier work
5-HT1A = target: 5-HT1A; set-up: method as in Lacivita et al., 2016; conditions: ref Lacivita et al., 2016; cited from earlier work
D2 = target: D2; set-up: method as in Lacivita et al., 2016; conditions: ref Lacivita et al., 2016; cited from earlier work
Alfa-1 = target: Alfa-1; set-up: method as in Lacivita et al., 2016; conditions: ref Lacivita et al., 2016; cited from earlier work
rats [2] = assay: Conditioned place preference with MPH and TP-22; format: in vivo, rat (Wistar-Han)
Description: The experimental apparatus used for the CPP test is a Black/White Box (BWB; Adriani et al., [2012]), i.e., a Plexiglas box with smooth walls and floor (70 × 30 × 35 cm) composed of two environments separated by a central gray wall placed at a distance of about 35 cm from end walls. The walls on the longer sides are gray whereas those on the short margins can be distinguished by black or white color. To make the two environments more recognizable, we added additional visual cues: three horizontal white stripes to the black wall and three vertical black stripes to the white wall. On the central gray wall there is a door with an easily removable panel (partition), allowing the experimental subjects to pass (or not) from one compartment chamber to the other, when required.
On both longer sides of the box, there are two aluminum bars equipped with eight photocells connected by cables to a computer. The software in use is Cage controller 1.27 for Dark Light for Rat and Mouse® (PRS, Rome, Italy)^2, that allows to score for each subject:
• Motor activity (beam interruptions per second) in either chamber • Time spent in each chamber (both forepaws and hindpaws in a same chamber) • Transitions (number of times a subject crosses the door between the two chambers)
This test was carried out under dim light and required nine not consecutive days divided into four steps (Figures 2–4):
• Day 1, initial preference test. The spontaneous place preference of experimental subjects was tested in drug-free conditions. They were initially placed in the black chamber (chosen as starting room) and central door was open during the whole test (15 min). The triplet of rats residing in each home cage was tested at the same time. • Days 2–7, drug conditioning. On odd days all 18 subjects were injected with saline solution only and, after injection, immediately placed in the black chamber. […]
The dependent variable was calculated as final preference day minus initial preference day. […]

rats [3] = test system: rats; set-up: method as in Galici et al., 2008; Waters et al., 2012; conditions: ref Galici et al., 2008, Waters et al., 2012; cited from earlier work
mice = test system: mice; set-up: method as in Galici et al., 2008; Waters et al., 2012; conditions: ref Galici et al., 2008, Waters et al., 2012; cited from earlier work

## N#Cc1ccc(CNC(=O)CCCCCN2CCN(c3ccccc3-c3ccccc3)CC2)cc1 [LP-211, N-(4-cyanophenylmethyl)-4–(2-biphenyl)-1-piperazinehexanamide]
5-HT6
  Ki: 1570 nM
[1]
  brain Cmax: 540 ng/mL
5-HT1A
  Ki: 379 nM
D2
  Ki: 242 nM
Alfa-1
  Ki: 22.6 nM

## COC(=O)C(c1ccccc1)C1CCCCN1 (stereo not shown) [MPH, methylphenidate]
Rats [2]; VEH then MPH 5 mg/kg i.v., vs saline control, P < 0.01
  locomotor activity on drug conditioning days (white chamber): significantly enhanced
Rats [2]; drug-free, VEH+MPH conditioned rats
  activity rate, post-conditioning preference test minus initial test: negative during the entire session
Rats [2]; drug-free, VEH+MPH conditioned rats, first 05 min
  time spent in the white side, post-conditioning preference test: slight preference for the white side

## CC1CCN(CC[C@H]2CCCN2S(=O)(=O)c2cccc(O)c2)CC1 [SB-269970]
Rats [3]
  amphetamine-induced hyperactivity: significantly attenuated
mice
  amphetamine-induced hyperactivity: significantly attenuated
